From US20060128724A1, “Pyrazole-substituted aminoheteroaryl compounds as protein kinase inhibitors” (AGOURON PHARMACEUTICALS, INC., priority 2004, published 2006) come the findings set out here.

The structures appear in SMILES notation.

T1 sequence (P08581 974-1390 limits assumed): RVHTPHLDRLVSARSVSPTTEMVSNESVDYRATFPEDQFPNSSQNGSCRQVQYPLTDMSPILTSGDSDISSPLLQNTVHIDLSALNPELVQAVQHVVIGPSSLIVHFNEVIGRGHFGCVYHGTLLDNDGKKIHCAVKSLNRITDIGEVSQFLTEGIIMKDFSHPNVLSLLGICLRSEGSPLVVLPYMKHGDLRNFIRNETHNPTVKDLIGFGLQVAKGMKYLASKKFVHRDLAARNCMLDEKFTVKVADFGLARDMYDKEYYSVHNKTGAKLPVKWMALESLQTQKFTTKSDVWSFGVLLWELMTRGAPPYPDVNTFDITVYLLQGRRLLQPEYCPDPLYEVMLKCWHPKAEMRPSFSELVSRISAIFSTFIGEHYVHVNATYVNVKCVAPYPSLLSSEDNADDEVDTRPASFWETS

The test has as its target T1, c-MET (HGFR) (Homo sapiens, UniProt P08581).
T1 construct: purchased Upstate 14-526
Nature of the test: HGFR Continuous-Coupled Spectrophotometric Assay. It is filed as biochemical. The conditions noted are these: Met-2 substrate peptide, 50 nM HGFR, 37° C.; read-out: Met Ki. An outline of the steps: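 Tyrosine kinase activity of 50 nM HGFR on the activation-loop Met-2 peptide, followed as NADH consumption at 340 nm over 10 min at 37 °C in a pyruvate kinase/LDH coupled system, HEPES pH 7.5 buffer with MgCl2 and DTT.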
The Ki is a measure of affinity in units of concentration, obtained from inhibition or displacement. On to `CC(Oc1cc(Br)cnc1N)c1c(Cl)c(F)cc(F)c1Cl` (stereo not shown) [Example 145, 5-Bromo-3-[1-(2,6-dichloro-3,5-difluoro-phenyl)-ethoxy]-pyridin-2-ylamine], for which the Ki was determined as 30 nM.

For the compound `CC(Oc1cc(-c2cnn(C3CCNCC3)c2)cnc1N)c1c(Cl)c(F)cc(F)c1Cl` (stereo not shown) [Example 146, 3-[1-(2,6-Dichloro-3,5-difluoro-phenyl)-ethoxy]-5-(1-piperidin-4-yl-1H-pyrazol-4-yl)-pyridin-2-ylamine], the Ki amounted to 30 nM.

Turning to `CC(Oc1cc(-c2cnn(C3CCNCC3)c2)cnc1N)c1c(Cl)c(O)cc(F)c1Cl` (stereo not shown) [Example 147, 3-{1-[2-Amino-5-(1-piperidin-4-yl-1H-pyrazol-4-yl)-pyridin-3-yloxy]ethyl}-2,4-dichloro-5-fluoro-phenol], the Ki was 30 nM.

Consider `COc1cc(F)c(Cl)c(C(C)Oc2cc(-c3cnn(C4CCNCC4)c3)cnc2N)c1Cl` (stereo not shown) [Example 148, 3-[1-(2,6-Dichloro-3-fluoro-5-methoxy-phenyl)-ethoxy]-5-(1-peridin-4-yl-1H-pyrazol-4-yl)-pyridin-ylamine], for which the Ki was found to be 23 nM.

On to `CC(Oc1cc(-c2cnn(C)c2)cnc1N)c1c(Cl)c(F)cc(F)c1Cl` (stereo not shown) [Example 149, 3-[1-(2,6-Dichloro-3,5-difluoro-phenyl)-ethoxy]-5-(1-methyl-1H-pyrazol-4-yl)-pyridin-2-ylamine], for which the Ki turned out to be 72 nM.

For `CC(Oc1cc(-c2cnn(C3CCNCC3)c2)cnc1N)c1c(Cl)c(F)cc(N(C)C)c1Cl` (stereo not shown) [Example 150, 3-[1-(2,6-Dichloro-3-dimethylamino-5-fluoro-phenyl)-ethoxy]-5-(1-piperidin-4-yl-1H-pyrazol-4-yl)-pyridin-2-ylamine], the Ki was 163 nM.

Turning to `CC(Oc1cc(-c2cnn(C)c2)cnc1N)c1c(Cl)c(F)cc(OC2CCNCC2)c1Cl` (stereo not shown) [Example 151, 3-{1-[2,6-Dichloro-3-fluoro-5-(piperidin-4-yloxy)-phenyl]-ethoxy]-5-(1-methyl-1H-pyrazol-4-yl)-pyridin-2-ylamine], the Ki came out at 25 nM.

As for `CC(Oc1cc(-c2cnn(C)c2)cnc1N)c1c(Cl)c(F)cc(O[C@@H]2CCNC2)c1Cl` (stereo partly drawn) [Example 152, 3-{1-[2,6-Dichloro-3-fluoro-5-(pyrrolidin-3R-yloxy)-phenyl]-ethoxy}-5-(1-methyl-1H-pyrazol-4-yl)-pyridin-2-ylamine], the Ki was 32 nM.

Take `CC(Oc1cc(Br)cnc1N)c1c(Cl)c(F)cc(OCCN(C)C)c1Cl` (stereo not shown) [Example 153, 5-Bromo-3-{1-[2,6-dichloro-3-(2-dimethylamino-ethoxy)-5-fluoro-phenyl]-ethoxy}-pyridin-2-ylamine]: the Ki worked out at 805 nM.

Consider `COc1cc(Cl)c(C(C)Oc2cc(-c3cnn(C4CCNCC4)c3)cnc2N)c(Cl)c1OC` (stereo not shown) [Example 154, 3-(1-(2,6-Dichloro-3-dimethoxy-phenyl)-ethoxy]-5-(1-piperidin-4-yl-1H-pyrazol-4-yl)-pyridin-2-ylamine], for which the Ki stood at 105 nM.

For the compound `CC(Oc1cc(-c2cnn(C)c2)cnc1N)c1c(Cl)c(F)cc(OC2CNC2)c1Cl` (stereo not shown) [Example 155, 3-{1-[3-(Azetidin-3-yloxy)-2,6-dichloro-5-fluoro-phenyl]-ethoxy}-5-(1-methyl-1H-pyrazol-4-yl)-pyridin-2-ylamine], the Ki was 29 nM.

As to `CC(Oc1cc(-c2cnn(C)c2)cnc1N)c1c(Cl)c(F)cc(OC2CCCNC2)c1Cl` (stereo not shown) [Example 156, 3-{1-(2,6-Dichloro-3-fluoro-5-(piperidin-3-yloxy)-phenyl]-ethoxy}-5-(1-methyl-1H-pyrazol-4-yl)-pyridin-2-ylamine], the Ki worked out at 36 nM.

As for `CC(Oc1cc(-c2cnn(C3CCNCC3)c2)cnc1N)c1c(Cl)c(F)cc(N2CCCC2=O)c1Cl` (stereo not shown) [Example 157, 1-(3-{1-[2-Amino-5-(1-piperidin-4-yl-1H-pyrazol-4-yl)-pyridin-3-yloxy]-ethyl]-2,4-dichloro-5-fluoro-phenyl)-pyrrolidin-2-one], the Ki was found to be 51 nM.
